Tested on: hearing in the SRO frequencies
Assay: Validation study: SRO hearing monitoring with OtoID in subjects receiving cisplatin
Assay type: in vivo, human
Details: 9 ears of 24 monitored; Validation sample
Description: Validation Study, Sample Subjects. […] Subjects were prescreened using the electronic medical records for exclusionary criteria and to obtain treatment information. The subjects enrolled in the Validation study were part of a larger project to develop and evaluate a portable hearing testing device capable of measuring extended high frequency hearing. Except for the following two study-related differences, the same exclusionary criteria were used to recruit both groups of subjects (those participating in the Developmental or Validation studies). First, there was no exclusion for extent of hearing threshold loss in the Validation study sample. Second, subjects from the Validation study were tested on the chemotherapy unit or at bedside in the case of inpatients. There was no overlap of subjects in these two samples.
Validation Study; Equipment and Measurements. […] This device, the OtoID, was evaluated in an independent study for its ability to optimize the sensitivity, efficiency, and cost-effectiveness of ototoxicity early identification practices. […]
Sennheiser HDA 200 earphones were used with the OtoID to reduce the detrimental effects of environmental noise. […] The seven frequencies constituting each subject's individualized behavioral SRO were evaluated at each treatment interval. […] Subjects were also evaluated immediately following cessation of treatment and at 1 mo post-cessation of treatment. […]

N.N.[Cl][Pt][Cl] [cisplatin]
ears in which hearing loss occurred: 38%

Source: patent US9480418B2, “Systems and methods for the screening and monitoring of inner ear function” (The United States Government as represented by the …, priority 2012, dated 2016)
